Where a name gives a salt, the structure may show the parent alone. Read-outs that look alike come from different tables or passages of the source.
Experiments:
SARS‐CoV‐2 Nsp15 [1] = target: T1, SARS‐CoV‐2 Nsp15 (Severe acute respiratory syndrome coronavirus 2, UniProt P0DTD1); assay: biochemical
SARS‐CoV‐2 Nsp15 [2] = target: T1, SARS‐CoV‐2 Nsp15; assay: biochemical; assay type: biochemical; details: for inhibition at 10 µM: read-out: Inhibition % +L-Cys 10 µM; for loss of the inhibition potency in L‐cysteine buffer: 1 mM L‐cysteine buffer compared with DTT buffer
[3] = 1 mM DTT buffer, confidence interval in brackets, read-out: IC50 + DTT (μM) (CI in μM)
[4] = DTT buffer (Table S1), read-out: IC50 +DTT
[5] = hit confirmation, 10 µM, DTT buffer
[6] = primary screen, 10 µM (Table S1)
[7] = primary screen, 10 μM compound, 1 mM DTT buffer, normalized to 50 μM Congo red (100%) and DMSO (0%)
[8] = hit confirmation, 10 µM, DTT buffer, read-out: HC inhibition % +DTT 10 µM
[9] = primary screen, 10 µM (Table S1), read-out: PS Inhibition % 10 µM
[10] = primary screen, 10 μM compound, 1 mM DTT buffer, normalized to 50 μM Congo red (100%) and DMSO (0%), read-out: PS inhibition % 10 μM (single point measurement)
[11] = 1 mM L-cysteine buffer, confidence interval in brackets, read-out: IC50 + L‐Cys (μM) (CI in μM)
[12] = L-cysteine buffer (Table S1), read-out: IC50 +L-Cys

`Cc1[nH]c2ccc(F)cc2c1-c1nc2c3cccnc3c3ncccc3c2[nH]1` [APTO‐253] was tested, and the IC50 (SARS‐CoV‐2 Nsp15 [1]; [3]) was 7.8 µM, the IC50 (SARS‐CoV‐2 Nsp15 [1]; [4]) was 7.75 µM and the “HC inhibition % +DTT 10 µM” value (SARS‐CoV‐2 Nsp15 [1]; [5]) was 78,02%. For the same compound, the “PS Inhibition % 10 µM” value (SARS‐CoV‐2 Nsp15 [1]; [6]) was 61,11%, the “PS inhibition % 10 μM (single point measurement)” value (from here on “PS inhibition % 10 μM”) (SARS‐CoV‐2 Nsp15 [1]; [7]) was 61.1% and the “Inhibition % +L-Cys 10 µM” value (SARS‐CoV‐2 Nsp15 [2]; 10 µM, L-cysteine buffer) was 48,13%.
In the case of `CC(C)Nc1cccnc1N1CCN(C(=O)c2cc3cc(NS(C)(=O)=O)ccc3[nH]2)CC1` [Delavirdine (mesylate)], the IC50 (SARS‐CoV‐2 Nsp15 [1]; [3]) is reported as 2.3 µM, the IC50 (SARS‐CoV‐2 Nsp15 [1]; [4]) is reported as 2.29 µM and the inhibition at 10 µM (SARS‐CoV‐2 Nsp15 [1]; [8]) is reported as 77.3%. It also gave an inhibition at 10 µM (SARS‐CoV‐2 Nsp15 [1]; [9]) of 80.7%, an inhibition at 10 µM (SARS‐CoV‐2 Nsp15 [1]; [10]) of 80.7% and an inhibition at 10 µM (SARS‐CoV‐2 Nsp15 [2]; 10 µM, L-cysteine buffer) of 27.2%. For the same compound, the “loss of the inhibition potency in L‐cysteine buffer” value (“loss of the inhibition potency” below) (SARS‐CoV‐2 Nsp15 [2]) was “more than 50%”.
With `COc1cccc2c1C(=O)c1c(O)c3c(c(O)c1C2=O)C[C@@](O)(C(=O)CO)C[C@@H]3O[C@H]1C[C@H](N)[C@H](O)[C@H](C)O1` [Doxorubicin] the IC50 (SARS‐CoV‐2 Nsp15 [1]; IC50 + DTT (μM) (CI in μM)) was 3.7 µM, the IC50 (SARS‐CoV‐2 Nsp15 [1]; IC50 +DTT (µM)) was 3.69 µM and the IC50 (SARS‐CoV‐2 Nsp15 [2]; IC50 + L‐Cys (μM) (CI in μM)) was 2.3 µM. For the same compound, the IC50 (SARS‐CoV‐2 Nsp15 [2]; IC50 +L-Cys (µM)) was 2.26 µM.
In the case of `COc1cccc(C=NCCN=Cc2cccc(OC)c2[O-])c1[O-].[Cl-].[Mn+3]` [EUK 134], the IC50 (SARS‐CoV‐2 Nsp15 [1]; [3]) is reported as 3.3 µM, the IC50 (SARS‐CoV‐2 Nsp15 [1]; [4]) is reported as 3.34 µM and the “HC inhibition % +DTT 10 µM” value (SARS‐CoV‐2 Nsp15 [1]; [5]) is reported as 56,68%. The “PS Inhibition % 10 µM” value (SARS‐CoV‐2 Nsp15 [1]; [6]) was 70,85%, the “PS inhibition % 10 μM” value (SARS‐CoV‐2 Nsp15 [1]; [7]) was 70.9% and the “Inhibition % +L-Cys 10 µM” value (SARS‐CoV‐2 Nsp15 [2]; 10 µM, L-cysteine buffer) was 16,41%. For the same compound, the “loss of the inhibition potency” value (SARS‐CoV‐2 Nsp15 [2]) was “more than 50%”.
For `COc1cc2c(cc1OC)CN(CCc1ccc(NC(=O)c3cccc4c(=O)c5cccc(OC)c5[nH]c34)cc1)CC2` [Elacridar], the IC50 (SARS‐CoV‐2 Nsp15 [1]; [3]) was 4.9 µM, the IC50 (SARS‐CoV‐2 Nsp15 [1]; [4]) was 4.99 µM and the inhibition at 10 µM (SARS‐CoV‐2 Nsp15 [1]; [8]) was 72.7%. For the same compound, the inhibition at 10 µM (SARS‐CoV‐2 Nsp15 [1]; [9]) was 68.3%, the inhibition at 10 µM (SARS‐CoV‐2 Nsp15 [1]; [10]) was 68.3% and the inhibition at 10 µM (SARS‐CoV‐2 Nsp15 [2]; 10 µM, L-cysteine buffer) was 15.9%. The “loss of the inhibition potency” value (SARS‐CoV‐2 Nsp15 [2]) was “more than 50%”.
With `COc1cccc2c1C(=O)c1c(O)c3c(c(O)c1C2=O)C[C@@](O)(C(=O)CO)C[C@@H]3O[C@H]1C[C@H](N)[C@@H](O)[C@H](C)O1` [Epirubicin hydrochloride] the IC50 (SARS‐CoV‐2 Nsp15 [1]; IC50 + DTT (μM) (CI in μM)) was 3.4 µM, the IC50 (SARS‐CoV‐2 Nsp15 [1]; IC50 +DTT (µM)) was 3.37 µM and the IC50 (SARS‐CoV‐2 Nsp15 [2]; IC50 + L‐Cys (μM) (CI in μM)) was 1.5 µM. The IC50 (SARS‐CoV‐2 Nsp15 [2]; IC50 +L-Cys (µM)) was 1.46 µM.
With `CCOC(=O)CCNc1cc(N2CCc3ccccc3CC2)nc(-c2ccccn2)n1` [GSK J4 HCl] the IC50 (SARS‐CoV‐2 Nsp15 [1]; [3]) was 5.5 µM, the IC50 (SARS‐CoV‐2 Nsp15 [1]; [4]) was 5.48 µM and the inhibition at 10 µM (SARS‐CoV‐2 Nsp15 [1]; [8]) was 82.2%. The inhibition at 10 µM (SARS‐CoV‐2 Nsp15 [1]; [9]) was 75.8%, the inhibition at 10 µM (SARS‐CoV‐2 Nsp15 [1]; [10]) was 75.8% and the inhibition at 10 µM (SARS‐CoV‐2 Nsp15 [2]; 10 µM, L-cysteine buffer) was 77.9%. The IC50 (SARS‐CoV‐2 Nsp15 [2]; [11]) was 3.8 µM and the IC50 (SARS‐CoV‐2 Nsp15 [2]; [12]) was 3.81 µM.
`Oc1ccc2ccccc2c1SSc1c(O)ccc2ccccc12` [IPA‐3] was tested, and the “HC inhibition % +DTT 10 µM” value (SARS‐CoV‐2 Nsp15 [1]) was 89,23%, the “PS Inhibition % 10 µM” value (SARS‐CoV‐2 Nsp15 [1]) was 86,58% and the “PS inhibition % 10 μM” value (SARS‐CoV‐2 Nsp15 [1]) was 86.6%. For the same compound, the IC50 (SARS‐CoV‐2 Nsp15 [1]; read-out: IC50 + DTT (μM) (CI in μM)) was 0.9 µM, the IC50 (SARS‐CoV‐2 Nsp15 [1]; read-out: IC50 +DTT) was 0.99 µM and the “Inhibition % +L-Cys 10 µM” value (SARS‐CoV‐2 Nsp15 [2]) was 51,34%.
For `O=C1c2c(O)ccc(O)c2C(=O)c2c(NCCNCCO)ccc(NCCNCCO)c21` [Mitoxantrone hydrochloride], the IC50 (SARS‐CoV‐2 Nsp15 [1]; IC50 + DTT (μM) (CI in μM)) was 1.5 µM, the IC50 (SARS‐CoV‐2 Nsp15 [1]; IC50 +DTT (µM)) was 1.47 µM and the IC50 (SARS‐CoV‐2 Nsp15 [2]; IC50 + L‐Cys (μM) (CI in μM)) was 0.5 µM. For the same compound, the IC50 (SARS‐CoV‐2 Nsp15 [2]; IC50 +L-Cys (µM)) was 0.47 µM.
In the case of `O=C1C(Cl)=C(NCCN2CCOCC2)C(=O)c2ncccc21` [NSC‐663284], the IC50 (SARS‐CoV‐2 Nsp15 [1]; [3]) is reported as 0.5 µM, the IC50 (SARS‐CoV‐2 Nsp15 [1]; [4]) is reported as 0.48 µM and the “HC inhibition % +DTT 10 µM” value (SARS‐CoV‐2 Nsp15 [1]; [5]) is reported as 82,57%. The “PS Inhibition % 10 µM” value (SARS‐CoV‐2 Nsp15 [1]; [6]) was 85,51%, the “PS inhibition % 10 μM” value (SARS‐CoV‐2 Nsp15 [1]; [7]) was 85.5% and the “Inhibition % +L-Cys 10 µM” value (SARS‐CoV‐2 Nsp15 [2]; 10 µM, L-cysteine buffer) was 53,53%.
Work on `COc1cccc2c1C(=O)c1c(O)c3c(c(O)c1C2=O)C[C@@](O)(C(=O)CO)C[C@@H]3O[C@H]1C[C@H](N2CCO[C@H](OC)C2)[C@H](O)[C@H](C)O1` [Nemorubicin] yielded an IC50 (SARS‐CoV‐2 Nsp15 [1]; [3]) of 2.6 µM, an IC50 (SARS‐CoV‐2 Nsp15 [1]; [4]) of 2.61 µM and an inhibition at 10 µM (SARS‐CoV‐2 Nsp15 [1]; [8]) of 69.2%. For the same compound, the inhibition at 10 µM (SARS‐CoV‐2 Nsp15 [1]; [9]) was 65.2%, the inhibition at 10 µM (SARS‐CoV‐2 Nsp15 [1]; [10]) was 65.2% and the inhibition at 10 µM (SARS‐CoV‐2 Nsp15 [2]; 10 µM, L-cysteine buffer) was 69%. It also gave an IC50 (SARS‐CoV‐2 Nsp15 [2]; [11]) of 1.3 µM.
Work on `CCCCCCCCN=c1ccn(CCCCCCCCCCn2ccc(=NCCCCCCCC)cc2)cc1` [Octenidine dihydrochloride] yielded an IC50 (SARS‐CoV‐2 Nsp15 [1]; [3]) of 3.8 µM, an IC50 (SARS‐CoV‐2 Nsp15 [1]; [4]) of 3.76 µM and an inhibition at 10 µM (SARS‐CoV‐2 Nsp15 [1]; [8]) of 92.4%. For the same compound, the inhibition at 10 µM (SARS‐CoV‐2 Nsp15 [1]; [9]) was 98.6%, the inhibition at 10 µM (SARS‐CoV‐2 Nsp15 [1]; [10]) was 98.6% and the inhibition at 10 µM (SARS‐CoV‐2 Nsp15 [2]; 10 µM, L-cysteine buffer) was 103%. For the same compound, the IC50 (SARS‐CoV‐2 Nsp15 [2]; [11]) was 4.4 µM and the IC50 (SARS‐CoV‐2 Nsp15 [2]; [12]) was 4.36 µM.
`NCCNc1ccc(NCCN)c2c1C(=O)c1ccncc1C2=O` [Pixantrone (dimaleate)] was tested, and the IC50 (SARS‐CoV‐2 Nsp15 [1]; [3]) was 5.2 µM, the IC50 (SARS‐CoV‐2 Nsp15 [1]; [4]) was 5.23 µM and the inhibition at 10 µM (SARS‐CoV‐2 Nsp15 [1]; [8]) was 77.5%. The inhibition at 10 µM (SARS‐CoV‐2 Nsp15 [1]; [9]) was 82.3%, the inhibition at 10 µM (SARS‐CoV‐2 Nsp15 [1]; [10]) was 82.3% and the inhibition at 10 µM (SARS‐CoV‐2 Nsp15 [2]; 10 µM, L-cysteine buffer) was 72.8%. For the same compound, the IC50 (SARS‐CoV‐2 Nsp15 [2]; [11]) was 4.4 µM and the IC50 (SARS‐CoV‐2 Nsp15 [2]; [12]) was 4.37 µM.

From article PMC12079475, “Identification, validation, and characterization of approved and investigational drugs interfering with the SARS‐CoV‐2 endoribonuclease Nsp15” (Protein Science : A Publication of the Protein Society, 2025)
